Experimental data published in patent US20250339442A1, “METHODS OF TREATMENT USING A DUAL SPECIFICITY TYROSINE-PHOSPHORYLATION-REGULATED KINASE 1A (DYRK1A) INHIBITOR” (Fresh Tracks Therapeutics, Inc., priority 2022, published 2025).
“Also recorded” adds a separate entry of the source.

Assays:
[1] = system: PBMCs from subjects with ulcerative colitis; assay: Pro-inflammatory cytokine expression in PBMCs from subjects with ulcerative colitis (cytometric bead array); type: cell-based, human
Text: The anti-inflammatory effect of Compound A in PBMCs from subjects with ulcerative colitis was studied. The expression of pro-inflammatory cytokines IL-1β, IL 6, IL-8, IL-10 and TNF-α was investigated using a cytometric bead array (CBA).

CD4+ T cells = assay: Differentiation of CD4+ T cells (Th1, Th17, Treg); type: cell-based
Text: Th1 and Th17 cells are main players contributing to organ specific autoimmune disease and inflammation.

[2] = system: IMQ-induced psoriasis-like inflammation; assay: Imiquimod (IMQ)-induced psoriasis-like dermal inflammation; type: in vivo; settings: BALB/c mice
Text: The anti-inflammatory activity of Compound A in the imiquimod (IMQ)-induced psoriasis-like dermal inflammation in BALB/c mice was investigated.

[3] = system: house dust-induced atopic dermatitis; assay: House dust-induced atopic dermatitis model; type: in vivo, mice
Text: The potential anti-inflammatory and anti-pruritic effects of Compound A were investigated in a house dust-induced atopic dermatitis model in mice.

[4] = system: Collagen-Induced Arthritis; assay: Collagen-Induced Arthritis Model; type: in vivo, DBA/1 mice; settings: 60 mg/kg once daily, vs vehicle only treated animals
Description: Furthermore, the efficacy of Compound A in the Collagen-Induced Arthritis Model in DBA/1 mice was tested. Immunization with Type II Chicken Collagen led to the development of arthritis. In comparison with vehicle only treated animals, mice treated once daily with 60 mg/kg Compound A led to a reduction in arthritis index scores, paw measurements, and histopathology scores.

[5] = oral 30 mg/kg/day QD or BID x 21 days, in comparison with controls

CCNc1cc(Nc2ccc(C(=O)N3CCC(N4CCOCC4)CC3)cc2OC)nc2[nH]cc(C(F)(F)F)c12 [Compound A, (4-((4-(ethylamino)-3-(trifluoromethyl)-1H-pyrrolo[2,3-b]pyridin-6-yl)amino)-3-methoxyphenyl)(4-morpholinopiperidin-1-yl)methanone]
expression of pro-inflammatory cytokines IL-1β, IL 6, IL-8, IL-10 and TNF-α [1]: reducing pro inflammatory cytokines in PBMCs; also recorded: statistically significant reduction | development of Treg cells (CD4+ T cells): enhanced the development of Treg cells; also recorded: enhancing the development of Treg cells | differentiation of Th1 and Th17 cells (CD4+ T cells): inhibiting the differentiation of Th1 and Th17 cells; also recorded: inhibition of Th1 and Th7 cells | IMQ-induced psoriasis-like inflammation (ear swelling) ([2]; 45 mg/kg PO BID x 9 days): significantly (p<0.05) protective effects | IMQ-induced psoriasis-like inflammation (ear swelling) ([2]; 60 mg/kg PO BID x 9 days): significantly (p<0.05) protective effects | T cell subset levels in the skin (immunohistochemical staining) ([3]; in comparison with vehicle controls and the positive control abrocitinib): decreased all subset levels in the skin | IL-4 level in the skin [3, 5]: markedly reduced | IL-13 level in the skin [3, 5]: markedly reduced | IL-17 level in the skin [3, 5]: markedly reduced | arthritis index scores [4]: reduction | histopathology scores [4]: reduction | paw measurements [4]: reduction
